Laboratory results as given in US12279600B2, “Genetically modified sterile avians and method for the reconstitution thereof” (The University Court of the University of Edinburgh, priority 2018, dated 2025).
“Also recorded” adds a separate entry of the source.

Experiments:
germ cells = assay: Germ cell ablation in G2 Dazl-iCaspase9 and Dazl-aviCaspase9 embryos after B/B injection; format: in vivo, chicken; conditions: FIG. 11
Method: B/B was injected into the dorsal aorta of stage 16 chicken embryos (day 2.5). Embryos were incubated and examined at day 10 for GFP fluorescence and DDX4 expression. Left panels; GFP fluorescence in B/B injected iCaspase9 and aviCaspase9 embryos. Right panels: immunofluorescence for DDX4 protein (red).
The G1 Dazl-icaspase9 and Dazl-aviCaspase9 chickens were raised to sexual maturity and mated with wildtype chickens. Fertile eggs from the matings (G2 embryos) were incubated and examined for GFP expression in the gonads. The germ cells in the gonads of both Dazl-icaspase9 and Dazl-avicaspase9 G2 embryos contained GFP+ cells in the gonad (FIG. 9). […] The G2 embryos were tested for germ cell ablation. 1.0 μl of 0.1 mM B/B dimerization reagent (Takara Bio, Inc) was injected into the bloodstream of day 2.5 (stage 16 Hamilton & Hamburger (HH)) chicken embryos. The embryos were incubated for 8 days, PCR-screened to identify iCaspase9 embryos and examined for GFP expression in the gonads. […] Embryos were incubated for 8 days and examined for florescence and germ cells. […] (FIG. 12).

host germ cells = assay: Offspring from Dazl-Caspase9 hosts injected with Silkie donor PGCs and B/B; format: in vivo, chicken; conditions: Dazl-Caspase9 hosts injected with black skinned Silkie PGCs; FIG. 23
Method: FIG. 23 illustrates the use of caspase9 host ablation using black skinned silkie chicken donor PGCs injected into the iCaspase9 surrogate host embyros which are hatched and bred to produce pure offspring. […] (A-C) The offspring (embryos and chicks) have black skins indicating they came from the donor germ cells.
Utilising caspase 9 expression targeted to the DAZL locus in PGCs, host germ cell ablation and producing offspring from a donor chicken breed were tested using chicken donor PGCs from a black skinned silkie chicken breed. Donor PGCs injected into the caspase host embryos which were then raised to sexual maturity and bred were tested.
In more detail, in this embodiment, black skinned Silkie PGCs were mixed with B/B dimerisation drug and injected into Dazl-Caspase host embryos whilst in the egg. The eggs were sealed and the embryos were hatched then crossed to each other when sexual mature.
50% of offspring should be GFP positive if derived from the endogenous GFP+ caspase9 host PGCs.

FKBP12F36V = FKBP12F36V (Homo sapiens, UniProt P62942, F37V); conditions: cited from earlier work
Sequence of FKBP12F36V (P62942 whole entry F37V): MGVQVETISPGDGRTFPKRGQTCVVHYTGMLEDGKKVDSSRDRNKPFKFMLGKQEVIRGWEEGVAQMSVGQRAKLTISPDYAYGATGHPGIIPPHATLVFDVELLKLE

endogenous FKBPs = conditions: cited from earlier work
[1] = tested on: endogenous (host) germ cells; assay: Host germ cell ablation and donor PGC colonisation in Dazl-aviCaspase9 G2 embryos with B/B; format: in vivo, chicken; conditions: Dazl-aviCaspase9 G2 embryos injected with donor TdTomato PGCs and B/B, examined at day 10; FIG. 12
Method: FIG. 12 B/B drug treatment of aviCaspase9 transgenic embryos ablates host germ cells and permits transplanted donor cells to populate the host gonad. Stage HH 16 embryos containing the aviCaspase9 transgene targeted to the DAZL locus, were injected with 200 donor PGCs transfected with a transposon to insert a cassette for TdTomato expression randomly in the genome. Injected cells were in 1 μl of solution containing 0.5 mM (final concentration) B/B dimerization drug. After injection, eggs were dosed with 50 μl of 1× Pen/Strep containing 15 μM (final concentration) B/B dimeriser drug and incubated for 8 days. At 10 days of development, gonads were dissected and viewed under fluorescence.
The G1 Dazl-icaspase9 and Dazl-aviCaspase9 chickens were raised to sexual maturity and mated with wildtype chickens. Fertile eggs from the matings (G2 embryos) were incubated and examined for GFP expression in the gonads. The germ cells in the gonads of both Dazl-icaspase9 and Dazl-avicaspase9 G2 embryos contained GFP+ cells in the gonad (FIG. 9). […] The G2 embryos were tested for germ cell ablation. 1.0 μl of 0.1 mM B/B dimerization reagent (Takara Bio, Inc) was injected into the bloodstream of day 2.5 (stage 16 Hamilton & Hamburger (HH)) chicken embryos. The embryos were incubated for 8 days, PCR-screened to identify iCaspase9 embryos and examined for GFP expression in the gonads. […]

[2] = tested on: PGCs containing the targeted icaspase9 gene; assay: PGC culture with dimerization molecule B/B, total cell number after 10 days; format: cell-based, chicken
Method: FIG. 6 500 PGCs (dazl-GFP, dazl-human-Caspase or dazl-chicken-Caspase) were cultured in the presence or absence of the dimerization molecule B/B. After 10 days the total cell number was counted for each well. N=6 for each data point, from three independent experiments.
FIG. 22 500 PGCs (dazl-GFP, dazl-iCaspase, dazl-aviCaspase, ddx4-iCaspase9) were cultured in the presence or absence of the dimerization molecule B/B. After 10 days the total cell number was counted for each well. N=2 for each data point.
PGCs containing the targeted icaspase9 gene were treated with the B/B dimerization compound. […] These cells were mixed with control red fluorescent PGCs and injected into chicken embryos. The chicken embryos were treated with the B/B dimerization compound. Only red PGCs and control GFP PGCs were visible in the embryos. Dazl icaspase9 PGCs were killed (FIG. 7).
The iCaspase9 trasgene was targeted to either the DDX4 or the DAZL locus in PGCs and the cells were then exposed to the dimerisation drug. Cells containing the transgene inserted at the DAZL locus were determined to be inhibited/killed. Without wishing to be bound by theory, the inventors consider the expression levels at embryonic stages are important for ablating germ cells.

[3] = tested on: DAZL-iCasp9 targeted PGCs; assay: Ablation of injected DAZL-iCasp9 targeted PGCs in embryos treated with B/B; format: in vivo, chicken; conditions: stage HH 16 embryos, 25 nM B/B, gonads viewed at 8 days; FIG. 7
Method: Stage HH 16 embryos were injected with 3500 PGCs transfected with CRISPR reagents to insert an inducible caspase gene and GFP at the dazl locus, and 3500 PGCs transfected with a transposon to insert a cassette for TdTomato expression randomly in the genome. After injection, embryos were dosed with 50 μl of 1× Pen/Strep with or without 25 nM of the dimeriser drug B/B. At 8 days of development, gonads were dissected and viewed under fluorescence. Images are representative of three independent injections for each treatment.
PGCs containing the targeted icaspase9 gene were treated with the B/B dimerization compound. […] These cells were mixed with control red fluorescent PGCs and injected into chicken embryos. The chicken embryos were treated with the B/B dimerization compound.

[4] = tested on: PGCs containing the targeted nitroreductase gene; assay: PGC culture with nitroreductase pro-drug CB1954, total cell number after 10 days; format: cell-based, chicken
Method: FIG. 5 500 PGCs (Control, CAG-NTR or Dazl-NTR) were cultured in the presence or absence of the nitroreductase pro-drug CB1954 (n=2 for each concentration of pro-drug). After 10 days the total cell number was counted for each well. N=6 for each data point, from three independent experiments.
PGCs containing the targeted nitroreductase gene were treated with the pro-drug CB1954. PGCs died when exposed to the drug.

SMILES | GFP expression in the gonads (germ cells; 1.0 μl of 0.1 mM injected at day 2.5, incubated 8 days) | DDX4 positive or GFP+ germ cells in the gonads (germ cells; cryosections and DDX4 immuno-staining) | skin phenotype of offspring (donor origin) (host germ cells) | affinity and selectivity for FKBP12F36V (FKBP12F36V) | interaction with endogenous FKBPs (endogenous FKBPs) | endogenous (host) germ cells in the gonad [1] | PGC number ([2]; control untargeted PGCs) | PGC number ([2]; human and chicken caspase9 genes targeted to the dazl locus, FIG. 6) | PGC number ([2]; iCaspase 9 targeted to the ddx4 locus) | effect on cells with iCaspase9 transgene ([2]; transgene inserted at the DAZL locus, FIG. 22) | fate of injected Dazl icaspase9 PGCs in embryos [3] | cell number versus control cells ([4]; NTR targeted to the dazl locus, FIG. 5) | PGC survival on exposure to pro-drug ([4]; PGCs containing the targeted nitroreductase gene)
CC[C@H](C(=O)N1CCCC[C@H]1C(=O)O[C@H](CCc1ccc(OC)c(OC)c1)c1cccc(OCC(=O)NCC(CNC(=O)COc2cccc([C@@H](CCc3ccc(OC)c(OC)c3)OC(=O)[C@@H]3CCCCN3C(=O)[C@@H](CC)c3cc(OC)c(OC)c(OC)c3)c2)CN(C)C)c1)c1cc(OC)c(OC)c(OC)c1 [B/B, AP20187] | no visible GFP expression | almost no identifiable DDX4 positive or GFP+ cells are present; also recorded: no germ cells | black skin | high affinity and selectivity | minimal interaction | no endogenous (host) germ cells were detected | did not have reduced numbers of PGCs | severely reduced PGC numbers | slightly less PGC number | inhibited/killed | killed; also recorded: ablates | – | –
NC(=O)c1cc(N2CC2)c([N+](=O)[O-])cc1[N+](=O)[O-] [CB1954] | – | – | – | – | – | – | – | – | – | – | – | reduction in cell number in comparison to the control cells | died
CC[C@H](C(=O)N1CCCC[C@H]1C(=O)O[C@H](CCc1ccc(OC)c(OC)c1)c1cccc(OCC(=O)NCCNC(=O)COc2cccc([C@@H](CCc3ccc(OC)c(OC)c3)OC(=O)[C@@H]3CCCCN3C(=O)[C@@H](CC)c3cc(OC)c(OC)c(OC)c3)c2)c1)c1cc(OC)c(OC)c(OC)c1 [AP1903] | – | – | – | high affinity and selectivity | minimal interaction | – | – | – | – | – | – | – | –
